Source: ChEMBL document CHEMBL1201862, “PubChem BioAssay data set” (2004)
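1) Cells in 96-well plates. 2) Compound, 48 h, 5 concentrations. 3) Linear interpolation between surrounding doses. 4) Unreached endpoint = highest concentration. Abbreviation: GI50, concentration required for 50% inhibition of growth.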 Active and inactive are the calls of the source. No stated cut-off is given here; in the data, active = GI50 up to about 1.1 µM and inactive = higher.

Key:
Experiment in all cases: inhibition of tumour cell growth, NCI panel, 48 h
OVCAR-8 = system: OVCAR-8
PC-3 = system: PC-3
SR = system: SR
NCI/ADR-RES = system: NCI/ADR-RES
SK-MEL-28 = system: SK-MEL-28
HCT-116 = system: HCT-116
COLO 205 = system: COLO 205
A549 = system: A549
SF-295 = system: SF-295
DU-145 = system: DU-145
MCF7 = system: MCF7
SK-MEL-2 = system: SK-MEL-2
HT-29 = system: HT-29
RPMI-8226 = system: RPMI-8226
IGROV-1 = system: IGROV-1
EKVX = system: EKVX
OVCAR-3 = system: OVCAR-3
OVCAR-5 = system: OVCAR-5
HOP-92 = system: HOP-92
BT-549 = system: BT-549

Measured: GI50

Brc1ccc(-c2cc(-c3ccc4c(c3)OCO4)c(-c3cccs3)n2Cc2ccccc2)cc1
inactive: OVCAR-8 > 100 µM | PC-3 > 100 µM | SR > 100 µM | NCI/ADR-RES > 100 µM | SK-MEL-28 > 100 µM | HCT-116 > 100 µM | COLO 205 > 100 µM | A549 > 100 µM | SF-295 > 100 µM | DU-145 > 100 µM | MCF7 > 100 µM | SK-MEL-2 > 100 µM | HT-29 > 100 µM | RPMI-8226 > 100 µM | IGROV-1 > 100 µM | EKVX > 100 µM

CN(C)/C=N/c1ccc2nonc2c1
inactive: OVCAR-8 > 100 µM | PC-3 > 100 µM | SR > 100 µM | NCI/ADR-RES > 100 µM | SK-MEL-28 > 100 µM | HCT-116 > 100 µM | COLO 205 > 100 µM | A549 > 100 µM | SF-295 > 100 µM | OVCAR-3 > 100 µM | DU-145 > 100 µM | MCF7 > 100 µM | SK-MEL-2 > 100 µM | HT-29 > 100 µM | RPMI-8226 > 100 µM | IGROV-1 > 100 µM | OVCAR-5 > 100 µM | EKVX > 100 µM

O=C1/C(=C/c2ccccc2)NC(=S)N1CN1CCCCC1
inactive: HOP-92 > 100 µM | OVCAR-8 > 100 µM | PC-3 > 100 µM | SR > 100 µM | NCI/ADR-RES > 100 µM | SK-MEL-28 > 100 µM | HCT-116 > 100 µM | COLO 205 > 100 µM | A549 > 100 µM | SF-295 > 100 µM | OVCAR-3 > 100 µM | DU-145 > 100 µM | MCF7 > 100 µM | SK-MEL-2 > 100 µM | HT-29 > 100 µM | RPMI-8226 > 100 µM | IGROV-1 > 100 µM | OVCAR-5 > 100 µM | EKVX > 100 µM

O=C(O)c1cc2ccc3ccccc3c2oc1=O
inactive: HOP-92 > 100 µM | OVCAR-8 > 100 µM | PC-3 > 100 µM | SR > 100 µM | NCI/ADR-RES > 100 µM | SK-MEL-28 > 100 µM | HCT-116 > 100 µM | COLO 205 > 100 µM | A549 > 100 µM | SF-295 > 100 µM | OVCAR-3 > 100 µM | MCF7 > 100 µM | BT-549 > 100 µM | SK-MEL-2 > 100 µM | HT-29 > 100 µM | RPMI-8226 > 100 µM | IGROV-1 > 100 µM | OVCAR-5 > 100 µM | EKVX 31.3 µM

C[C@H](c1ccccc1)N1C(=O)[C@@H](O)[C@H]1[C@H](CO)OCc1ccccc1
inactive: HOP-92 96.4 µM | OVCAR-8 > 100 µM | PC-3 > 100 µM | SR > 100 µM | NCI/ADR-RES > 100 µM | SK-MEL-28 > 100 µM | HCT-116 > 100 µM | COLO 205 > 100 µM | A549 > 100 µM | SF-295 95.3 µM | OVCAR-3 > 100 µM | DU-145 > 100 µM | MCF7 > 100 µM | SK-MEL-2 > 100 µM | HT-29 > 100 µM | RPMI-8226 > 100 µM | IGROV-1 > 100 µM | OVCAR-5 > 100 µM | EKVX > 100 µM

Cc1cccc2c1Oc1ccccc1C2NC(=O)c1ccc([N+](=O)[O-])cc1 (stereo not drawn)
inactive: HOP-92 > 100 µM | OVCAR-8 > 100 µM | PC-3 > 100 µM | SR > 100 µM | NCI/ADR-RES 79.4 µM | SK-MEL-28 > 100 µM | HCT-116 > 100 µM | A549 > 100 µM | SF-295 > 100 µM | OVCAR-3 99.3 µM | DU-145 21 µM | BT-549 56 µM | SK-MEL-2 > 100 µM | HT-29 > 100 µM | RPMI-8226 > 100 µM | IGROV-1 > 100 µM | OVCAR-5 > 100 µM | EKVX > 100 µM

Cc1cn([C@H]2CN(O)C[C@@H](CO)O2)c(=O)[nH]c1=O
inactive: OVCAR-8 > 100 µM | PC-3 > 100 µM | SK-MEL-28 > 100 µM | HCT-116 > 100 µM | COLO 205 > 100 µM | A549 > 100 µM | SF-295 > 100 µM | DU-145 > 100 µM | MCF7 > 100 µM | BT-549 > 100 µM | SK-MEL-2 > 100 µM | RPMI-8226 > 100 µM | IGROV-1 > 100 µM | OVCAR-5 > 100 µM | EKVX > 100 µM

CC1OC2=N[C@@H]1C(=O)N[C@@H](C(C)C)C1=N[C@H](C(=O)N[C@@H](C(C)C)C3=N[C@H](C(=O)N[C@@H](C(C)C)C4=N[C@H](C(=O)N[C@H]2C(C)C)C(C)O4)C(C)O3)C(C)O1 (stereo partly drawn)
inactive: HOP-92 > 10 µM | OVCAR-8 > 10 µM | PC-3 > 10 µM | SR > 10 µM | NCI/ADR-RES > 10 µM | SK-MEL-28 > 10 µM | COLO 205 > 10 µM | SF-295 > 10 µM | OVCAR-3 > 10 µM | DU-145 > 10 µM | MCF7 > 10 µM | SK-MEL-2 > 10 µM | HT-29 > 10 µM | RPMI-8226 > 10 µM | IGROV-1 > 10 µM | OVCAR-5 > 10 µM | EKVX > 10 µM

SC[C@@H]1COC[C@H](CS)S1
inactive: OVCAR-8 > 100 µM | PC-3 > 100 µM | SR > 100 µM | SK-MEL-28 > 100 µM | HCT-116 > 100 µM | COLO 205 > 100 µM | A549 > 100 µM | SF-295 > 100 µM | OVCAR-3 > 100 µM | DU-145 > 100 µM | MCF7 > 100 µM | BT-549 > 100 µM | HT-29 > 100 µM | IGROV-1 > 100 µM | OVCAR-5 > 100 µM | EKVX > 100 µM

COC(=O)c1cc(C)ccc1/C=C1\Cc2cc(C)c(C)cc2C1=O
inactive: HOP-92 36.2 µM | OVCAR-8 > 100 µM | PC-3 > 100 µM | SR > 100 µM | SK-MEL-28 > 100 µM | HCT-116 > 100 µM | A549 > 100 µM | SF-295 38.7 µM | OVCAR-3 51.1 µM | DU-145 > 100 µM | BT-549 > 100 µM | SK-MEL-2 60.3 µM | HT-29 > 100 µM | RPMI-8226 > 100 µM | IGROV-1 > 100 µM | OVCAR-5 > 100 µM | EKVX > 100 µM

O=C(O)c1ccccc1CC(Cc1ccc2c(c1)CCC2)C(=O)O (stereo not drawn)
inactive: HOP-92 > 100 µM | OVCAR-8 > 100 µM | PC-3 > 100 µM | SR 8.07 µM | NCI/ADR-RES > 100 µM | SK-MEL-28 > 100 µM | HCT-116 > 100 µM | COLO 205 > 100 µM | A549 > 100 µM | SF-295 > 100 µM | OVCAR-3 > 100 µM | DU-145 > 100 µM | MCF7 > 100 µM | SK-MEL-2 > 100 µM | HT-29 > 100 µM | RPMI-8226 > 100 µM | IGROV-1 > 100 µM | OVCAR-5 > 100 µM | EKVX > 100 µM
